Results on 10 compounds are retold here after patent US8551978B2 (Theravance, Inc., priority 2009, dated 2013).

The subject of assay [1] is MCh-induced bronchoconstriction. The assay can be described thus: Einthoven assay: bronchoprotection against methacholine (MCh)-induced bronchoconstriction. The format is in vivo, rat. Conditions: rat, 100 μg by inhalation, 24 h after administration; for inhibition in vivo at 0.1 mg: inhaled or nasal, read-out: Broncho. at 24 h. A digest of the protocol:
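Male Sprague-Dawley rats received 100 μg compound (unless stated) or water vehicle by 10-min inhalation. At set times, anesthetized, ventilated rats were challenged with IV MCh at 40 and 80 μg/kg (2.5-min infusions). Ventilation-pressure rise is expressed as % inhibition versus vehicle controls.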

Assay [2] addresses hM3 muscarinic receptor (Homo sapiens (Human), UniProt P20309). Kind of assay: Radioligand binding assay for muscarinic receptors ([3H]-NMS displacement, CHO cell membranes). The procedure, abridged:
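[3H]-NMS displacement used homogenized CHO membranes, with test compounds at final concentrations of […]. Plates were incubated 6 hours at 37 °C, then filtered and read by liquid scintillation counting. A one-site competition fit gave values that were converted to Ki.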

In assay [3] the target is hβ2 adrenergic receptor (Homo sapiens (Human), UniProt P07550). The assay can be described thus: Assay for determining adrenergic receptor agonist potency (cAMP Flashplate, HEK-293 cells). It is filed as cell-based. Conditions: data rounded to nearest 1 nM.
hβ2 adrenergic receptor, sequence (P07550 whole entry): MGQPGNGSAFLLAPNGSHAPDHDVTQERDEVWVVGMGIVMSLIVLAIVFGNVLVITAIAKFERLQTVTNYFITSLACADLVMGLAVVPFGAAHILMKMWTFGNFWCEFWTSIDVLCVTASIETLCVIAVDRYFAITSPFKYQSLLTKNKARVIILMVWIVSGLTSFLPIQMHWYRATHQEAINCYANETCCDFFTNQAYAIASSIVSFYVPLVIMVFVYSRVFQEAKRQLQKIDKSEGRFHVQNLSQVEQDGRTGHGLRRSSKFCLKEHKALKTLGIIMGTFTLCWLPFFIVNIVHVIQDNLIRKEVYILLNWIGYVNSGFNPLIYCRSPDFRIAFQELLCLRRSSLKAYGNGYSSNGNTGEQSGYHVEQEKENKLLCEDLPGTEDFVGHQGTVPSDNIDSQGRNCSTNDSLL
Setting [4] is: hM3 Muscarinic Receptor Binding, data rounded to nearest 0.1 nM.

Like-named read-outs stand apart in the source and are kept apart here.

The Ki is the equilibrium dissociation constant of an inhibitor or competing ligand from its target. The low end stands for higher affinity, the high end for lower affinity. Usually EC50 stands for the concentration that produces a half-maximal response. The low end stands for higher potency in that assay, the high end for lower potency in that assay.

hM3 muscarinic receptor, sequence (P20309 whole entry): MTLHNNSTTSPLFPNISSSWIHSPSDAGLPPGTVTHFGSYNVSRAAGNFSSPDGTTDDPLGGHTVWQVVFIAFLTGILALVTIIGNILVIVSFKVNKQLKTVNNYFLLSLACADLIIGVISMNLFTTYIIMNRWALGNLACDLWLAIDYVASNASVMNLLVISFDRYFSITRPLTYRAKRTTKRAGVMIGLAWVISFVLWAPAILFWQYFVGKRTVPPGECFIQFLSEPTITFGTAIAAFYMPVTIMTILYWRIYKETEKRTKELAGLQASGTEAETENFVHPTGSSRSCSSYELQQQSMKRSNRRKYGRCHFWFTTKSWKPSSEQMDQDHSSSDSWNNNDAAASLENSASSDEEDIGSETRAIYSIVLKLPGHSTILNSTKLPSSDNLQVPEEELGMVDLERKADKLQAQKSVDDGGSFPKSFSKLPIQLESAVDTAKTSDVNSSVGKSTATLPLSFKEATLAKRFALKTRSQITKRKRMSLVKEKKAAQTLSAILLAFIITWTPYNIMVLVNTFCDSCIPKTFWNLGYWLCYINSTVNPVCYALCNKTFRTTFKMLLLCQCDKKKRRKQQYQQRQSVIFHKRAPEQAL

On to `C[C@H](Cc1ccc(CNC(=O)c2cccc(N(C)C(=O)CCN3CCC(OC(=O)Nc4ccccc4-c4ccccc4)CC3)c2)cc1)NC[C@H](O)c1ccc(O)c2[nH]c(=O)ccc12` [Compound I-48], for which the inhibition in vivo at 0.1 mg in assay [1] was more than 30%. The compound further registered a Ki in assay [2] of 0.3 nM. In addition, in assay [3], the EC50 turned out to be 1 nM.
Turning to `COc1cc(NC(=O)Cc2cccc(N(C)C(=O)CCN3CCC(OC(=O)Nc4ccccc4-c4ccccc4)CC3)c2)c(Cl)cc1CNC[C@H](O)c1ccc(O)c2[nH]c(=O)ccc12` [Compound I-61], the inhibition in vivo at 0.1 mg in assay [1] is more than 30%. In assay [2] (setting [4]), this compound had an inhibition constant (Ki) of 0.1 nM. This compound also returned a half-maximal effective concentration (EC50) in assay [3] of 1 nM.
In the same order, the values of `COc1ccc(CC(C)NC[C@H](O)c2ccc(O)c3[nH]c(=O)ccc23)cc1CC(=O)NCc1ccc(N(C)C(=O)CCN2CCC(OC(=O)Nc3ccccc3-c3ccccc3)CC2)cc1` (stereo partly drawn) [Compound I-94] are more than 30%, 0.1 nM and 1 nM.
With `C[C@@H](Cc1cccc(NC(=O)c2cccc(N(C)C(=O)CCN3CCC(OC(=O)Nc4ccccc4-c4ccccc4)CC3)c2)c1)NC[C@H](O)c1ccc(O)c2[nH]c(=O)ccc12` [Compound I-39], the “Broncho. at 24 h” value in assay [1] is “No”. Further, in assay [2], the inhibition constant Ki was 0.2 nM. The compound further displayed a half-maximal effective concentration (EC50) in assay [3] of 1 nM.
Consider `CN(CCCC(=O)Nc1ccc(CCNC[C@H](O)c2ccc(O)c3[nH]c(=O)ccc23)cc1)C(=O)CCN1CCC(OC(=O)Nc2ccccc2-c2ccccc2)CC1` [Compound I-8], for which the inhibition in vivo at 0.1 mg in assay [1] was more than 30%. This compound also had a Ki in assay [2] of 0.1 nM. Also, a half-maximal response in assay [3] (EC50) required 1 nM.
On to `CN(CCCCC(=O)Nc1cccc(CCNC[C@H](O)c2ccc(O)c3[nH]c(=O)ccc23)c1)C(=O)CCN1CCC(OC(=O)Nc2ccccc2-c2ccccc2)CC1` [Compound I-20], for which the inhibition in vivo at 0.1 mg in assay [1] was more than 30%. In addition, the Ki in assay [2] stood at 0.1 nM. This compound registered an EC50 in assay [3] of 1 nM.
As for `CC(Cc1ccc(CC(=O)NCc2ccc(N(C)C(=O)CCN3CCC(OC(=O)Nc4ccccc4-c4ccccc4)CC3)cc2)cc1)NC[C@H](O)c1ccc(O)c2[nH]c(=O)ccc12` (stereo partly drawn) [Compound I-80], the “Broncho. at 24 h” value in assay [1] is on record as “No”. The compound also yielded a Ki in assay [2] (setting [4]) of 0.2 nM. A half-maximal response in assay [3] (EC50) required 1 nM.
In the case of `Cc1cc(CNC[C@H](O)c2ccc(O)c3[nH]c(=O)ccc23)ccc1NC(=O)c1cccc(N(C)C(=O)CCN2CCC(OC(=O)Nc3ccccc3-c3ccccc3)CC2)c1` [Compound I-27], the “Broncho. at 24 h” value in assay [1] is listed as “No”. This compound returned an inhibitory constant (Ki) in assay [2] of 0.1 nM. The same compound registered an EC50 in assay [3] of 1 nM.
Consider `Cc1cc(CNC[C@H](O)c2ccc(O)c3[nH]c(=O)ccc23)ccc1NC(=O)CCCCN(C)C(=O)CCN1CCC(OC(=O)Nc2ccccc2-c2ccccc2)CC1` [Compound I-15], for which the inhibition in vivo at 0.1 mg in assay [1] is more than 30%. The same compound gave a Ki in assay [2] of 0.1 nM. In assay [3], this compound registered a concentration for a half-maximal effect (EC50) of 1 nM.
On to `CC(Cc1ccc(CNC(=O)Cc2ccc(N(C)C(=O)CCN3CCC(OC(=O)Nc4ccccc4-c4ccccc4)CC3)cc2)cc1)NC[C@H](O)c1ccc(O)c2[nH]c(=O)ccc12` (stereo partly drawn) [Compound I-67], for which the inhibition in vivo at 0.1 mg in assay [1] is more than 30%. Affinity in assay [2] was put at a Ki of 0.1 nM. For the same compound, the EC50 in assay [3] came to 1 nM.
